Consider 1 molecule from publication doi:10.64898/2025.12.01.691523v1 (biorxiv, 2025).

In one assay the target is bacterioferritin (Bftn). The note with it: buffer not given in main text.
A further assay deals with AcFtnHCH (Anopheles culicifacies, UniProt A0A182M0V3). Nature of the assay: biochemical.
AcFtnHCH, sequence (A0A182M0V3 21-216): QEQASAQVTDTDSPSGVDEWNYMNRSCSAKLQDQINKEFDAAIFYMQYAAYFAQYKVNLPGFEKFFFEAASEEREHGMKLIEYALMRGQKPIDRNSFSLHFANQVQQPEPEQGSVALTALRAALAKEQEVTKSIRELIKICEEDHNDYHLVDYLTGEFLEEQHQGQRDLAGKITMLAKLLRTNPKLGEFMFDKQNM

The term Kd denotes the free concentration of one partner at which half of the binding sites on the other are occupied at equilibrium, for simple one-to-one binding. In the case of `C=CC1=C(C)C2=Cc3c(C=C)c(C)c4[n]3[Fe]([Cl])[n]3c(c(C)c(CCC(=O)O)c3=CC3=NC(=C4)C(C)=C3CCC(=O)O)=CC1=N2` [hemin], the dissociation constant Kd on bacterioferritin (Bftn) stood at 136 ± 21.9 nM; on AcFtnHCH, 67.8 ± 6.5 nM.
